Literature values, collected in patent US7151091B2, “Compositions and methods for preventing infection” (The Johns Hopkins University, priority 2002, dated 2006).

Key:
[1] = concentrations ranging from 5–100 mM
[2] = system: human immunodeficiency virus (HIV); settings: given to HIV-infected pregnant women before and during childbirth and to their infants after childbirth

Compound | removal of membrane cholesterol [1] | reduction of HIV transmission [2]
CC(O)COC[C@H]1O[C@@H]2O[C@H]3[C@H](O)[C@@H](O)[C@@H](O[C@H]4[C@H](O)[C@@H](O)[C@@H](O[C@H]5[C@H](O)[C@@H](O)[C@@H](O[C@H]6[C@H](O)[C@@H](O)[C@@H](O[C@H]7[C@H](O)[C@@H](O)[C@@H](O[C@H]8[C@H](O)[C@@H](O)[C@@H](O[C@H]1[C@H](O)[C@H]2O)O[C@@H]8COCC(C)O)O[C@@H]7COCC(C)O)O[C@@H]6COCC(C)O)O[C@@H]5COCC(C)O)O[C@@H]4COCC(C)O)O[C@@H]3COCC(C)O (stereo partly drawn) [2-OH-propyl-beta-cyclodextrin] | removes membrane cholesterol within minutes | 
Cc1cn([C@H]2C[C@H](N=[N+]=[N-])[C@@H](CO)O2)c(=O)[nH]c1=O [zidovudine] |  | two-thirds
